Key:
[1] = target: T1, NLRC4 (Mus musculus, UniProt Q3UP24); type: cell-based; conditions: BMDMs infected with Salmonella typhimurium, 0, 1, 5, or 10 mM BHB
T1 construct: endogenous in cells; host or cells: mouse BMDMs infected with Salmonella typhimurium (SL1344)

[2] = tested on: caspase-11; assay: Non-canonical inflammasome pathway, caspase-11 immunoblot in LPS treated BMDMs; type: cell-based, mouse; conditions: BMDMs treated with LPS 4 h
[3] = tested on: BMDMs; assay: BMDM viability and proliferation (MTT assay); type: cell-based, mouse
Experimental: (§1) The BMDM proliferation in response to BHB treatment was analyzed using the MTT assay according to manufacturer's instructions. The BMDM were incubated with Asante Potassium Green 1 (APG-1) which is a fluorescent indicator with a Kd for measuring cytosolic K+ concentration. It has non-ratiometric large fluorescence dynamic range allows sensing of even small changes in K+ concentration. Optimal excitation was recorded at 517 nm. In addition, the K+ was measured in BMDMs using an ElementXR or Agilent 7700 Inductively Coupled Mass Spectrometry (ICP-MS) using previously described methods (Muñoz-Planillo et al., 2013, Immunity 38:1142-1153). For error analysis, samples and standard solutions were run in duplicate.

[4] = tested on: BMDMs; assay: Intracellular K+ measurement in BMDMs (APG-1 dye, ICP-MS); type: cell-based, mouse; conditions: LPS primed BMDMs
Experimental: as §1

[5] = tested on: H3 acetylation; assay: H3 acetylation in LPS primed BMDMs (western blot); type: cell-based, mouse; conditions: LPS primed BMDMs treated with ATP and BHB 1 h
Experimental: FIG. 5, comprising FIGS. 5A-5B, depicts data from experiments examining the mechanism of BHB's anti-inflammasome effects. FIG. 5A is a representative western blot analysis of caspase-1 in BMDMs primed with LPS for 4 hours and stimulated with 2DG, AICAR, Compound C and BHB for 1 h on indicated combinations. FIG. 5B is a representative western blot examining H3 acetylation in LPS primed BMDMs treated with ATP and S- or D-BHB (R-BHB) for 1 h.
The BMDM cell lysates were prepared using RIPA buffer and immediately snap frozen in liquid nitrogen. Samples were left on ice for 1 hour with vortexing every 10 min. Samples were then centrifuge at 14,000 g for 15 min, the supernatant was collected and the protein concentration was determined using the DC Protein Assay (Bio-RAD). The immunoblot analysis was performed using previously described methods (Vandanmagsar et al., 2011, Nat. Med. 17:179-188). The immune complexes were visualized by incubation with horseradish peroxidase-conjugated anti-rat or anti-rabbit secondary antibody (Amersham Biosciences). Immunoreactive bands were visualized by enhanced chemiluminescence (PerkinElmer Life Sciences).

[6] = tested on: human neutrophils; assay: IL-1β secretion from human peripheral blood neutrophils (ELISA); type: cell-based; conditions: peripheral blood neutrophils from adult (30-40 years) and old (65-75 years)
Experimental: BHB was also observed to inhibit IL1B production from human neutrophils irrespective of age. Peripheral blood neutrophils from adult (30-40 years) and old (65-75 years) were enriched and stimulated as indicated (FIG. 20). IL-1β secretion was measured in culture supernatants by ELISA. Data are expressed as mean±S.E.M (*p<0.01).

[7] = target: T2, NLRP3 inflammasome (Mus musculus, UniProt Q8R4B8); assay: IL-1β secretion from mouse neutrophils after NLRP3 activation (western blot); type: cell-based; design: endogenous in cells; host or cells: mouse bone marrow neutrophils (A15)
T2 sequence (Q8R4B8 whole entry): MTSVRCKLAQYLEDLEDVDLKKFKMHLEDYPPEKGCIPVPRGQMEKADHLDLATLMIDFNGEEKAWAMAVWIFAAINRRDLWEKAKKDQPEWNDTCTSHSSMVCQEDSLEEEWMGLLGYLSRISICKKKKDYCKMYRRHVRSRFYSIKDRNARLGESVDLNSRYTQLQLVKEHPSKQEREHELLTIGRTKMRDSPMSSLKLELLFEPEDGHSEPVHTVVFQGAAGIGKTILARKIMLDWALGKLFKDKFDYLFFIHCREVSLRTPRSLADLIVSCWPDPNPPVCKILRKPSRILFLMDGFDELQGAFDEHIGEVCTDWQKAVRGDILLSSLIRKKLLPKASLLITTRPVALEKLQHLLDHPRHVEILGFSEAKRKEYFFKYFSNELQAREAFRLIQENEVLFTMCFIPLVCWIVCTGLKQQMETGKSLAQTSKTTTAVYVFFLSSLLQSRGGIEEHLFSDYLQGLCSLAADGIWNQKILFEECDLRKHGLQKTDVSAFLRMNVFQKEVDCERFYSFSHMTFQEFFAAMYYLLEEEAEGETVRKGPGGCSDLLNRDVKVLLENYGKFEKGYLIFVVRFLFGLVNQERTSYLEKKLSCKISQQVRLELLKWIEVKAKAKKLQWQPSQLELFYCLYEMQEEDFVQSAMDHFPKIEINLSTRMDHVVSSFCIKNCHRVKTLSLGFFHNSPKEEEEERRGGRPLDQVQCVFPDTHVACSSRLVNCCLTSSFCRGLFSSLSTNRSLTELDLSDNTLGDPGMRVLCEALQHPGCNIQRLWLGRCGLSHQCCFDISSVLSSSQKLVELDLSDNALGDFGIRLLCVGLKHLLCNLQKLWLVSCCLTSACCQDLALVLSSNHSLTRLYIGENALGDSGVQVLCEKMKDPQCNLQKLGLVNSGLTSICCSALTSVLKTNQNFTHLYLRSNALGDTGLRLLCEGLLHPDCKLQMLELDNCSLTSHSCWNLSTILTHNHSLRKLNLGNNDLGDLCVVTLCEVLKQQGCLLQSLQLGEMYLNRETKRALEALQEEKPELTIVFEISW
Experimental: Neutrophils from young (3 month) and aged (24 months) mice were stimulated with LPS, and the NLRP3 inflammasome was activated by treatment with ATP and C6 Ceramide. BHB was provided at the same time of ATP and ceramide treatment.
Adult and old neutrophils were analyzed for ketogenic and ketolytic enzyme expression. Gene expression was measured by RT-PCR (FIG. 14A). Expression was normalized to Gapdh expression and was represented as expression relative to adult gene expression. SCOT, HMGCL, and β-Actin protein expression were assessed in unstimulated adult and old neutrophils by Western blot (FIG. 14B). Dose response to BHB was measured by assaying IL-1β secretion in supernatants from adult neutrophils (FIG. 14C). Western blots were generated of IL-1β in supernatants from adult and old neutrophils stimulated with LPS+ATP or LPS+ceramide (FIG. 14D). In FIG. 14A, each dot represents a pooled sample of n=2 mice. In FIGS. 14B-14D, each blot is representative of at least two independent experiments. Each sample analyzed by Western blot is pooled from n=4-6 mice per experiment.
Adult neutrophils were stimulated with LPS+ATP+BHB to test the mechanism by which BHB blocks IL-1β secretion. LPS-primed neutrophils were stimulated with ATP in the presence of BHB or niacin (FIG. 15A). Supernatants were analyzed for IL-1β secretion by Western blot. Wildtype of mCAT neutrophils were stimulated with LPS+ATP+BHB (FIG. 15B). Supernatants were analyzed for IL-1β secretion by Western blot. Catalase and β-Actin expression were measured by Western blot in neutrophil cell lysates. LPS-primed neutrophils were stimulated with ATP+BHB in the presence of 3-MA or AOA as indicated (FIG. 15C). Supernatants were analyzed for IL-1β secretion by Western blot. The enantiomer S-BHB was tested in a dose response for the ability to inhibit inflammasome activation (FIG. 15D). Supernatants were analyzed for IL-1β secretion by Western blot. FCAS neutrophils were incubated with 4-OHT followed by LPS priming. […] Supernatants were analyzed for IL-1β secretion by Western blot. […]

[8] = target: T2, NLRP3 inflammasome; assay: NLRP3 inflammasome activation in LPS primed BMDMs (caspase-1 / IL-1β immunoblot); type: cell-based; design: endogenous in cells; host or cells: mouse bone marrow derived macrophages (A1)
Experimental: All steps were performed using sterile technique. Femurs were collected in RPMI (Life Technologies, Grand Island, N.Y.)+5% FBS (R5; Omega Scientific, Tarzana, Calif.). Both ends of the femur were then cut and the femur was flushed with R5. The bone marrow was centrifuge at 450 g for 5 min, the supernatant was decanted and red blood cells were lysed using ACK lysis buffer (Quality Biological, Gaithersburg, Md.). After neutralization with R5, bone marrow cells were centrifuged, resuspended in 10 ml of R5 and placed into a 6 well plate. Non-adherent cells were collected the following morning. The non-adherent cells were resuspended at 4×10^6 cells/ml in media consisting of 10 ml supernatant of non-adherent cells, 7.2 ml L929 conditioned media, 6.8 ml R5 and MCSF (long/ml; R&D Systems, Minneapolis, Minn.). An additional 2 ml of fresh media was added 4 d after isolation. Non-adherent cells were collected on day 7, separated by density gradient separation using Fico/Lite (Atlanta Biologicals, Flowery Branch, Ga.) and mononuclear cells were collected. Cells were rinsed twice with Dulbecco's PBS+2% FBS, and resuspended at 1×10^6 cells/ml. Cells were treated with ultrapure LPS (Invivogen, San Diego, Calif.) alone or in combination with 5 mM ATP (Sigma, St. Louis, Mo.) or 200 μM palmitate-BSA (Sigma). The BMDMs were also primed with ultrapure lipid A (10 μg/ml; Invivogen, San Diego, Calif.), lipoteichoic acid (10 μg/ml; Invivogen), or Pam3-CSK4 (10 μg/ml; Invivogen) for 4 hour and stimulated with various NLRP3 activators (ATP 5 mM; Sigma, MSU 250 ug/ml; Invivogen, Silica; 200 ug/ml; Invivogen, sodium palmitate; 200 μM; Sigma, ceramide C6 80 μg/ml; Cayman, and sphingosine 40 μM; Cayman, Ann Arbor, Mich.) for 1 hour together with D-BHB or L-(BHB) at indicated concentration. The cell supernatants and cell lysates were collected 1 h after BHB treatment and analyzed for caspase-1 and IL-1β.
The BMDM cell lysates were prepared using RIPA buffer and immediately snap frozen in liquid nitrogen. Samples were left on ice for 1 hour with vortexing every 10 min. Samples were then centrifuge at 14,000 g for 15 min, the supernatant was collected and the protein concentration was determined using the DC Protein Assay (Bio-RAD). […] The immune complexes were visualized by incubation with horseradish peroxidase-conjugated anti-rat or anti-rabbit secondary antibody (Amersham Biosciences). Immunoreactive bands were visualized by enhanced chemiluminescence (PerkinElmer Life Sciences).

T1 sequence (Q3UP24 whole entry): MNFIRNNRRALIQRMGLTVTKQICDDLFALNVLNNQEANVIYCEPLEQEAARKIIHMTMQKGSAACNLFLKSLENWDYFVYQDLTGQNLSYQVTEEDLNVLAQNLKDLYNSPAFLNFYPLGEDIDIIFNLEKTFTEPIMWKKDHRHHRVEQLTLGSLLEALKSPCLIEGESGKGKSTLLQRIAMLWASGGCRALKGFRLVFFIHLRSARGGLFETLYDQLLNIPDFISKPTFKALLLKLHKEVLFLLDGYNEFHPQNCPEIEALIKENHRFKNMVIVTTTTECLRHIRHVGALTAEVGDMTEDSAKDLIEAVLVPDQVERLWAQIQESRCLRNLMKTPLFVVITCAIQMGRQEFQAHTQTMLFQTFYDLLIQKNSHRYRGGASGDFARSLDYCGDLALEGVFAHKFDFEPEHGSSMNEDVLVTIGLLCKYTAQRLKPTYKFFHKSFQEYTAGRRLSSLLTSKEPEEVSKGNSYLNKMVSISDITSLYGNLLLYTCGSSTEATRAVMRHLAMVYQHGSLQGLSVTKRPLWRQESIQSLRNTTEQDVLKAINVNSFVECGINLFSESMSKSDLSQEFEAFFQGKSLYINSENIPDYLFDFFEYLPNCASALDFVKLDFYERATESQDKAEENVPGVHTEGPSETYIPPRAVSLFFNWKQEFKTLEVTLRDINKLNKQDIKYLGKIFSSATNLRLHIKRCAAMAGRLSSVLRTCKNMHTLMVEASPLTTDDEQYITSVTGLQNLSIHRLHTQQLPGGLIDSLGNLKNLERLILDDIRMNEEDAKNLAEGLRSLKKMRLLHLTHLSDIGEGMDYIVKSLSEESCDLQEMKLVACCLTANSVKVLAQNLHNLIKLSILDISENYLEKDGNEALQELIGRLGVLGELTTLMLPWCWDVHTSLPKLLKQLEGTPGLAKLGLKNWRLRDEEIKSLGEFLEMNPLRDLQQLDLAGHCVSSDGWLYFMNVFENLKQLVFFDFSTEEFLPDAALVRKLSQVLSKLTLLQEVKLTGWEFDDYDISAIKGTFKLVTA

CC(O)CC(=O)O (stereo not drawn) [BHB, β-hydroxybutyrate]
NLRC4 mediated caspase-1 cleavage [1]: did not inhibit | caspase-11 activation [2]: neither butyrate nor BHB blocks | cellular proliferation ([3]; 10 mM concentration): significantly increased | viability of BMDMs ([3]; increasing concentration of BHB): did not impair | decline in intracellular K+ in response to MSU ([4]; BHB 1 h): prevented the decline | decline in intracellular K+ in response to ATP ([4]; BHB (10 mM)): prevented the decline | decline in intracellular K+ in response to ceramides ([4]; C6 ceramide and BHB 1 h): prevented the decline | H3 acetylation in macrophages [5]: inducing | IL1B production from human neutrophils [6]: inhibit | NLRP3 inflammasome activation in neutrophils ([7]; adult and old mouse neutrophils, LPS+ATP or LPS+ceramide, IL-1β in supernatants): inhibit | mechanism of inhibitory effects in neutrophils ([7]; adult neutrophils stimulated with LPS+ATP+BHB): physically blocking inflammasome assembly | IL-1β production after NLRP3 activation in neutrophils ([7]; neutrophils from young (3 month) and aged (24 month) mice, LPS, ATP and C6 Ceramide, 10 mM BHB): blocks | BHB's inhibitory effects on the inflammasome in macrophages lacking Atg5 ([8]; Atg5 deficient BMDMs, LPS, ATP, BHB (10 mM)): not required | ATP-induced caspase-1 activation without involvement of AMPK ([8]; BHB (10 mM) with AICAR 2 mM or Compound C 25 μM): suppressed | ATP-induced IL-1β activation without involvement of AMPK ([8]; BHB with AICAR or Compound C): suppressed | inflammasome activation after priming with Pam3-CSK4 ([8]; BMDMs primed with TLR1/2 ligand Pam3-CSK4 4 h, ATP and BHB 1 h): effectively suppressed | inflammasome activation after priming with lipoteichoic acid (LTA) ([8]; BMDMs primed with TLR2 agonist LTA 4 h, ATP and BHB 1 h): effectively suppressed | inflammasome activation after priming with lipid A ([8]; BMDMs primed with TLR4 agonist lipid A 4 h, ATP and BHB 1 h): effectively suppressed | BHB's anti-inflammasome effects in BMDMs deficient in GPR109a ([8]; Gpr109a deficient BMDMs, LPS and ATP, BHB (10, 20 mM)): could not be abrogated | processing of biologically active p17 form of IL-1β ([8]; LPS primed BMDMs, ATP and BHB for 60 minutes): dose-dependently inhibited | ATP-induced caspase-1 cleavage ([8]; LPS primed BMDMs, ATP and BHB for 60 minutes, Western blot of p20): dose-dependently inhibited | inflammasome activation by ceramides ([8]; LPS primed BMDMs, C6 ceramide 6 h (80 μg/ml)): blocked | monosodium urate (MSU) crystals induced caspase-1 activation ([8]; LPS primed BMDMs, MSU): inhibited | inflammasome activation by nigericin ([8]; LPS primed BMDMs, nigericin (10 μM) 1 h): blocked | inflammasome activation by palmitate ([8]; LPS primed BMDMs, palmitate (200 μM) 12 h): blocked | inflammasome activation by silica particles ([8]; LPS primed BMDMs, silica 1 hour): blocked | inflammasome activation by sphingosine ([8]; LPS primed BMDMs, sphingosine (50 μM) 1 h): blocked | BHB's inhibitory effects on NLRP3 activation after ablation of Sirt2 or UCP2 ([8]; Sirt2−/− or Ucp2−/− BMDMs, LPS and ATP, BHB (10 mM) 1 h): did not control

From patent publication US20180008629A1, “Compositions and Methods for Treating NLRP3 Inflammasome-Related Diseases and Disorders” (priority 2015, published 2018)
